Assay results taken from patent US10174001B2, “Crystals of 5-cyclopropyl-2-((1-(3-fluorobenzyl)-1H-indol-5-yl)amino)nicotinic acid” (FUJIFILM Toyama Chemical Co., Ltd., priority 2015, dated 2019).
In brackets after ≈: the same amount, converted by molar mass.

How the values were obtained:
keratinocyte = settings: cited from earlier work
[1] = Test Example 4: Stability (HPLC purity and crystal form on storage); format: physicochemical; settings: for Purity (%): HPLC
Protocol: The α-form crystal and the β-form crystal were preserved under the conditions of 40 or 60° C. and a relative humidity of 75%.
Twelve weeks after the test started, the purity was measured by HPLC. Additionally, crystal forms were measured by the infrared absorption spectrum.
HPLC Measurement conditions
Measurement wavelength: 270 nm
Column: Ascentis Express C18, inner diameter 3.0 mm×length 150 mm
Column temperature: 40° C.
Mobile phase: 0.1% phosphoric acid/(acetonitrile/water=60/40) solution

[2] = Test Example 1: Solubility in various organic solvents; format: physicochemical; settings: for Solubility / solubility at 24 h: stirred for 24 hours; for solubility at 24 h: organic solvent or mixture, thermodynamic from solid
Protocol: The α-form crystal (about 100 mg) or the β-form crystal (about 100 mg) was suspended in various organic solvents (about 1 mL) and stirred for 24 hours. Impurities were filtered off using a membrane filter and the filtrate was analyzed by HPLC to determine the solubility.

[3] = Test Example 3: Hygroscopicity (rate of weight change and crystal form); format: physicochemical; settings: for Stability (hygroscopicity test): 25° C., relative humidity of 75 or 97%
Protocol: The α-form crystal and the β-form crystal were preserved under the conditions of 25° C. and a relative humidity of 75 or 97%.
Sampling was carried out over time and the weights of crystals were measured to determine rates of weight changes. Additionally, crystal forms were measured by the infrared absorption spectrum.
Rate of weight change (%)=((B−A)/A)×100
A: Crystal weight before the test started
B: Crystal weight after the test started

[4] = Test Example 2: Physical Stability (mixed α/β crystals stirred in solvent, crystal form by infrared absorption spectrum); format: physicochemical
Protocol: The α-form crystal (1 part by weight) and the β-form crystal (1 part by weight) were mixed, suspended in a solvent (ethyl acetate/ethanol=5/1.5 parts by weight) and stirred at 26, 70 or 100° C.
Sampling was carried out over time and crystal forms were measured by the infrared absorption spectrum.

Crystal form ([1]; 40° C. 75% RH, 0 hr) | Purity (%) ([1]; 40° C. 75% RH, 0 hr) | Crystal form ([1]; 40° C. 75% RH, 12 weeks) | Purity (%) ([1]; 40° C. 75% RH, 12 weeks) | Crystal form ([1]; 60° C. 75% RH, 0 hr) | Purity (%) ([1]; 60° C. 75% RH, 0 hr) | Crystal form ([1]; 60° C. 75% RH, 12 weeks) | Purity (%) ([1]; 60° C. 75% RH, 12 weeks) | Crystal form ([3]; 25° C. 75% RH, 0 hr) | Rate of weight change (%) ([3]; 25° C. 75% RH, 0 hr) | Crystal form ([3]; 25° C. 75% RH, 2 weeks) | Rate of weight change (%) ([3]; 25° C. 75% RH, 2 weeks) | Crystal form ([3]; 25° C. 75% RH, 4 weeks) | Rate of weight change (%) ([3]; 25° C. 75% RH, 4 weeks) | Crystal form ([3]; 25° C. 75% RH, 8 weeks) | Rate of weight change (%) ([3]; 25° C. 75% RH, 8 weeks) | Crystal form ([3]; 25° C. 75% RH, 12 weeks) | Rate of weight change (%) ([3]; 25° C. 75% RH, 12 weeks) | Crystal form ([3]; 25° C. 97% RH, 0 hr) | Rate of weight change (%) ([3]; 25° C. 97% RH, 0 hr) | Compound | other results
 |  |  |  |  |  |  |  |  |  |  |  |  |  |  |  |  |  |  |  | O=C(O)c1cc(C2CC2)cnc1Nc1ccc2c(ccn2Cc2cccc(F)c2)c1 [Compound A, 5-Cyclopropyl-2-((1-(3-fluorobenzyl)-1H-indol-5-yl)amino)nicotinic acid] | Antiproliferative activity on keratinocyte (keratinocyte): excellent antiproliferative activity on keratinocyte
β | 99.6 | β | 99.7 | β | 99.6 | β | 99.7 | β | 0.00 | β | 0.07 | β | 0.07 | β | 0.20 | β | 0.18 | β | 0.00 | O=C(O)c1cc(C2CC2)cnc1Nc1ccc2c(ccn2Cc2cccc(F)c2)c1 [β-Form crystal, 5-cyclopropyl-2-((1-(3-fluorobenzyl)-1H-indol-5-yl)amino)nicotinic acid] | Solubility ([2]; 2-Propanol): 3.0 mg/mL (≈ 7.47 mM); Solubility ([2]; Acetone): 48.9 mg/mL (≈ 122 mM); Solubility ([2]; Acetonitrile): 2.7 mg/mL (≈ 6.73 mM); Solubility ([2]; Ethanol): 6.8 mg/mL (≈ 16.9 mM); Solubility ([2]; Ethyl acetate): 16.8 mg/mL (≈ 41.8 mM); Solubility ([2]; Isopropyl acetate): 9.8 mg/mL (≈ 24.4 mM); Solubility ([2]; Methyl ethyl ketone): 55.3 mg/mL (≈ 138 mM); Solubility ([2]; Methyl tert-butyl ether): 8.1 mg/mL (≈ 20.2 mM); Relative stability of crystal forms ([2]; concluded from solubility): more stable than the α-form crystal; Solubility compared between crystal forms ([2]; various organic solvents): lower than the solubility of the α-form crystal; Crystal form ([3]; 25° C. 97% RH, 2 weeks): β; Rate of weight change (%) ([3]; 25° C. 97% RH, 2 weeks): 0.10%; Crystal form ([3]; 25° C. 97% RH, 4 weeks): β; Rate of weight change (%) ([3]; 25° C. 97% RH, 4 weeks): 0.11%; Crystal form ([3]; 25° C. 97% RH, 8 weeks): β; Rate of weight change (%) ([3]; 25° C. 97% RH, 8 weeks): 0.26%; Crystal form ([3]; 25° C. 97% RH, 12 weeks): β; Rate of weight change (%) ([3]; 25° C. 97% RH, 12 weeks): 0.25%; Stability (hygroscopicity test) [3]: stable; Relative stability of crystal forms ([4]; concluded from crystal transition in suspension): more stable than the α-form crystal
α | 99.4 | α | 99.5 | α | 99.4 | α | 99.5 | α | 0.00 | α | 0.08 | α | 0.08 | α | 0.24 | α | 0.22 | α | 0.00 | O=C(O)c1cc(C2CC2)cnc1Nc1ccc2c(ccn2Cc2cccc(F)c2)c1 [α-Form crystal, 5-cyclopropyl-2-((1-(3-fluorobenzyl)-1H-indol-5-yl)amino)nicotinic acid] | solubility at 24 h ([2]; 2-propanol): 3.5 mg/mL (≈ 8.72 mM); solubility at 24 h ([2]; acetone): 55 mg/mL (≈ 137 mM); solubility at 24 h ([2]; acetonitrile): 3.1 mg/mL (≈ 7.72 mM); solubility at 24 h ([2]; ethanol): 8.8 mg/mL (≈ 21.9 mM); solubility at 24 h ([2]; ethyl acetate): 19.7 mg/mL (≈ 49.1 mM); solubility at 24 h ([2]; isopropyl acetate): 11.5 mg/mL (≈ 28.6 mM); solubility at 24 h ([2]; methyl ethyl ketone): 63.1 mg/mL (≈ 157 mM); solubility at 24 h ([2]; methyl tert-butyl ether): 10.1 mg/mL (≈ 25.2 mM); Crystal form ([3]; 25° C. 97% RH, 2 weeks): α; Rate of weight change (%) ([3]; 25° C. 97% RH, 2 weeks): 0.13%; Crystal form ([3]; 25° C. 97% RH, 4 weeks): α; Rate of weight change (%) ([3]; 25° C. 97% RH, 4 weeks): 0.17%; Crystal form ([3]; 25° C. 97% RH, 8 weeks): α; Rate of weight change (%) ([3]; 25° C. 97% RH, 8 weeks): 0.38%; Crystal form ([3]; 25° C. 97% RH, 12 weeks): α; Rate of weight change (%) ([3]; 25° C. 97% RH, 12 weeks): 0.32%; Stability (hygroscopicity test) [3]: stable; Crystal transition ([4]; mixed crystals stirred at 26, 70 or 100° C.): transitioned to the β-form crystal
